{"source": "patent US7572779B2", "about": "(priority 2001, dated 2009)", "assay": "Open-label, single-dose, randomized, crossover oral bioavailability study in healthy postmenopausal women volunteers", "conditions": "single oral tablet", "description": "The study was an open-label, single-dose, randomized, crossover, bioavailability study in nine healthy postmenopausal women volunteers.\nComparison of treatments was based on ratio of least square means from analysis of variance and ratio of individual subject parameter values, e.g. ratio=(AUCtreatment A)/(AUCtreatment B).", "data": [{"smiles": "CC(=O)Oc1ccc2c(c1)CC[C@@H]1[C@@H]2CC[C@]2(C)[C@@H](O)CC[C@@H]12", "note": "[17β-estradiol-3-acetate]", "values": [{"measurement": "Absorption as indicated by shape of serum estradiol concentration-time profiles", "value": "rapidly absorbed and hydrolyzed to 17β-estradiol in vivo"}]}]}
